Source: US12612412B2, “Antiviral heterocyclic compounds” (Enanta Pharmaceuticals, Inc., priority 2021, dated 2026)

Each molecule was assayed on genotype A, "Long" strain RSV (assay: RSV-A assay (CPE protection in Hep-2 cells, ATPlite readout)). Settings: human respiratory syncytial virus, genotype A “Long” strain RSV, MOI 0.1, CPE protection, read-out: Human RSV-A (“Long”).
Assay type: cell-based, Human respiratory syncytial virus (HRSV)
From the text: Hep-2 cells, (originally derived from tumors grown in irradiated-cortisonised weanling rats that had been injected with epidermoid carcinoma tissue from the larynx of a person, but later found to be indistinguishable from HeLa cells by PCR DNA analysis), were used for the culturing of genotype A, “Long” strain RSV. Flasks were inoculated with RSV and viral stocks were collected once cytopathic effect (CPE) was greater than 90%. Viral stocks in 25% sucrose media were snap frozen using liquid nitrogen to increase viral stability. Viral stock titers were quantified by tissue culture infectious dose 50% (TCID50) using 8,000 cells per well and 3-fold viral dilutions across a 96-well plate, cultured for 4 days. Viral stock titers were also quantified by a plaque forming unit assay, as described elsewhere.
Following extensive parameter testing, the final assay is run as follows: Hep-2 cells are seeded into the inner 60 wells of a 96-well plate at 8,000 cells per well in a volume of 50 μL using Growth Media (DMEM without phenol red, 1% L-Glut, 1% Penn/Strep, 1% nonessential amino acids, 10% heat-inactivated FBS). 2-fold serial dilutions of control and test compounds are added to the wells in duplicate in a total volume of 25 μL. Viral stock is then added to the wells at a multiplicity of infection (MOI) of 0.1 in a volume of 25 μL, bringing the total volume of each well to 100 μL. The MOI is calculated using the PFU/mL, or TCID50 if unavailable. Each 96-well plate has a control column of 6 wells with cells and virus but no compound (negative control, max CPE), a column with cells but no compound or virus (positive control, minimum CPE), and a column with no cells or virus or compound (background plate/reagent control). The control wells with cells but no virus are given an additional 25 μL of growth media containing an equal quantity of sucrose as those wells receiving the viral stock in order to keep consistent in media and volume conditions. The outer wells of the plate are filled with 125 μL of moat media (DMEM, 1% Penn/Strep) to act as a thermal and evaporative moat around the test wells. Following a 5-day incubation period, the plates are read using ATPlite (50 uL added per well), which quantifies the amount of ATP (a measure of cell health) present in each well. Assay plates are read using the Envision luminometer. […] EC50 ranges are as follows: A<0.2 μM; B>0.2 μM.

Compound	EC50 [nM]
COc1cc(C(=O)NC[C@](O)(c2cc3c(c(-c4ccc(F)cc4)n2)OC[C@]3(C)C(N)=O)C(F)(F)F)cc2cc(C)c(C(=O)O)nc12 [Example 5]	> 200
Cc1nc2c(F)cc(C(=O)NC[C@](O)(c3cc4c(c(-c5ccc(F)cc5)n3)OC[C@]4(C)C(N)=O)C(F)(F)F)cc2s1 [Example 15]	< 200
C[C@]1(C(N)=O)COc2c1cc([C@@](O)(CNC(=O)c1ccc3nc(C4CC4)sc3c1)C(F)(F)F)nc2-c1ccc(F)c(Cl)c1 [Example 18]	< 200
C[C@]1(C(N)=O)COc2c1cc([C@@](O)(CNC(=O)c1cnc3nc(C4CC4)sc3c1)C(F)(F)F)nc2-c1ccc(F)cc1 [Example 21]	< 200
Cn1nc(F)c2cc(C(=O)NC[C@](O)(c3cc4c(c(-c5ccc(F)cc5)n3)OC[C@]4(C)C(N)=O)C(F)(F)F)ccc21 [Example 31]	> 200
C[C@]1(C(N)=O)COc2c1cc([C@@](O)(CNC(=O)c1ccn3cc(C4CC4)nc3c1)C(F)(F)F)nc2-c1ccc(F)cc1 [Example 33]	> 200
CC(C)(O)CNC(=O)[C@@]1(C)COc2c1cc([C@@](O)(CNC(=O)c1ccc3c(c1)CN(C1CC1)C3=O)C(F)(F)F)nc2-c1ccc(F)cc1 [Example 35]	< 200
CCN1Cc2cc(C(=O)NC[C@](O)(c3cc4c(c(-c5ccc(F)cc5)n3)OC[C@]4(C)C(N)=O)C(F)(F)F)ccc2C1=O [Example 36]	< 200
Cc1ccc2cc(C(=O)NC[C@](O)(c3cc4c(c(-c5ccc(F)cc5)n3)OC[C@]4(C)C(N)=O)C(F)(F)F)cc(N3CCCC3=O)c2n1 [Example 38]	> 200
Cc1ccc2cc(C(=O)NC[C@](O)(c3cc4c(c(-c5ccc(F)c(Cl)c5)n3)OC[C@]4(C)C(N)=O)C(F)(F)F)cc(N3CCCC3=O)c2n1 [Example 39]	> 200
COc1cc(C(=O)NC[C@](O)(c2cc3c(c(-c4ccc(F)c(Cl)c4)n2)OC[C@]3(C)C(N)=O)C(F)(F)F)cc2cn(C(F)F)nc12 [Example 46]	< 200
C[C@]1(C(N)=O)COc2c1cc([C@@](O)(CNC(=O)c1ccc3nc(N)cn3c1)C(F)(F)F)nc2-c1ccc(F)cc1 [Example 56]	> 200
COc1cc(C(=O)NC[C@](O)(c2cc3c(c(-c4ccc(F)cc4)n2)OC[C@]3(C)C(N)=O)C(F)(F)F)cn2cc(C(N)=O)nc12 [Example 61]	< 200
CC(C)(O)c1cn2cc(C(=O)NC[C@](O)(c3cc4c(c(-c5ccc(F)cc5)n3)OC[C@]4(C)C(N)=O)C(F)(F)F)cc(F)c2n1 [Example 66]	> 200
C[C@]1(C(N)=O)COc2c1cc([C@@](O)(CNC(=O)c1ccn3nc(C4CC4)cc3c1)C(F)(F)F)nc2-c1ccc(F)c(Cl)c1 [Example 67]	< 200
C[C@]1(C(N)=O)COc2c1cc([C@@](O)(CNC(=O)c1ccc3ncc(C(F)(F)F)cc3c1)C(F)(F)F)nc2-c1ccc(F)cc1 [Example 69]	< 200
COc1cc(C(=O)NC[C@](O)(c2cc3c(c(-c4ccc(F)cc4)n2)OC[C@]3(C)C(N)=O)C(F)(F)F)cc2cc3c(nc12)CCC3 [Example 71]	< 200
COc1cc(C(=O)NC[C@](O)(c2cc3c(c(-c4ccc(F)cc4)n2)OC[C@]3(C)C(N)=O)C(F)(F)F)cc2cc(C(=O)O)c(C)nc12 [Example 76]	> 200
C[C@]1(C(N)=O)COc2c1cc([C@@](O)(CNC(=O)c1cc(F)c3nc(C(N)=O)cn3c1)C(F)(F)F)nc2-c1ccc(F)cc1 [Example 79]	> 200
C[C@]1(C(N)=O)COc2c1cc([C@@](O)(CNC(=O)c1ccn3nc(N)cc3c1)C(F)(F)F)nc2-c1ccc(F)cc1 [Example 87]	< 200
C[C@]1(C(N)=O)COc2c1cc([C@@](O)(CNC(=O)c1ccn3nc(C4CC4)cc3c1)C(F)(F)F)nc2-c1ccc(F)cc1 [Example 88]	< 200

Compound	EC50 [nM]
COc1cc(C(=O)NC[C@](O)(c2cc3c(c(-c4ccc(F)cc4)n2)OC[C@]3(C)C(N)=O)C(F)(F)F)cc2nc(N)oc12 [Example 89]	< 200
C[C@]1(C(N)=O)COc2c1cc([C@@](O)(CNC(=O)c1cc(F)c3oc(N)nc3c1)C(F)(F)F)nc2-c1ccc(F)cc1 [Example 90]	< 200
C[C@]1(C(N)=O)COc2c1cc([C@@](O)(CNC(=O)c1cc(F)c3[nH]c(C4CC4)nc3c1)C(F)(F)F)nc2-c1ccc(F)cc1 [Example 93]	< 200
C[C@]1(C(N)=O)COc2c1cc([C@@](O)(CNC(=O)c1cc(Cl)c3nnc(C(F)(F)F)cc3c1)C(F)(F)F)nc2-c1ccc(F)cc1 [Example 98]	< 200
COc1cc(C(=O)NC[C@](O)(c2cc3c(c(-c4ccc(F)cc4)n2)OC[C@]3(C)C(N)=O)C(F)(F)F)cc2cn(CC(F)(F)F)nc12 [Example 99]	< 200
Cc1c(C(=O)NC[C@](O)(c2cc3c(c(-c4ccc(F)cc4)n2)OC[C@]3(C)C(N)=O)C(F)(F)F)ccc2[nH]ncc12 [Example 101]	< 200
C[C@]1(C(N)=O)COc2c1cc([C@@](O)(CNC(=O)c1cc(F)c3[nH]ncc3c1)C(F)(F)F)nc2-c1ccc(F)cc1 [Example 104]	< 200
C[C@]1(C(N)=O)COc2c1cc([C@@](O)(CNC(=O)c1cc3cn[nH]c3cc1Cl)C(F)(F)F)nc2-c1ccc(F)cc1 [Example 106]	> 200
C[C@]1(C(N)=O)COc2c1cc([C@@](O)(CNC(=O)c1ccc3[nH]nnc3c1)C(F)(F)F)nc2-c1ccc(F)cc1 [Example 107]	> 200
C[C@]1(C(N)=O)COc2c1cc([C@@](O)(CNC(=O)c1ccc3nncn3c1)C(F)(F)F)nc2-c1ccc(F)cc1 [Example 109]	> 200
C[C@]1(C(N)=O)COc2c1cc([C@@](O)(CNC(=O)c1ccc3nnnn3c1)C(F)(F)F)nc2-c1ccc(F)cc1 [Example 110]	> 200
C[C@]1(C(N)=O)COc2c1cc([C@@](O)(CNC(=O)c1cc(O)c3[nH]ncc3c1)C(F)(F)F)nc2-c1ccc(F)cc1 [Example 111]	> 200
Cc1cnc2c(Nc3ccc(C(C)C)nn3)cc(C(=O)NC[C@](O)(c3cc4c(c(-c5ccc(F)cc5)n3)OC[C@]4(C)C(N)=O)C(F)(F)F)cc2c1 [Example 115]	< 200
Cc1cnc2c(Nc3ccc(C(F)(F)F)nn3)cc(C(=O)NC[C@](O)(c3cc4c(c(-c5ccc(F)cc5)n3)OC[C@]4(C)C(N)=O)C(F)(F)F)cc2c1 [Example 116]	< 200
CCc1ccc(Nc2cc(C(=O)NC[C@](O)(c3cc4c(c(-c5ccc(F)cc5)n3)OC[C@]4(C)C(N)=O)C(F)(F)F)cc3cc(C)cnc23)nn1 [Example 117]	< 200
Cc1cnc2c(Nc3ccc(C(C)(C)C)nn3)cc(C(=O)NC[C@](O)(c3cc4c(c(-c5ccc(F)cc5)n3)OC[C@]4(C)C(N)=O)C(F)(F)F)cc2c1 [Example 118]	< 200
Cc1cnc2c(Nc3ccc(F)nn3)cc(C(=O)NC[C@](O)(c3cc4c(c(-c5ccc(F)cc5)n3)OC[C@]4(C)C(N)=O)C(F)(F)F)cc2c1 [Example 119]	< 200
Cc1cc(C(=O)NC[C@](O)(c2cc3c(c(-c4ccc(F)cc4)n2)OC[C@]3(C)C(N)=O)C(F)(F)F)cc2cn[nH]c12 [Example 122]	< 200
CC(C)c1cc(C(=O)NC[C@](O)(c2cc3c(c(-c4ccc(F)cc4)n2)OC[C@]3(C)C(N)=O)C(F)(F)F)cc2cn[nH]c12 [Example 123]	< 200
CC(C)c1cc2[nH]ncc2cc1C(=O)NC[C@](O)(c1cc2c(c(-c3ccc(F)cc3)n1)OC[C@]2(C)C(N)=O)C(F)(F)F [Example 125]	> 200
